Measurements: the NIST ThermoML archive (doi:10.1021/acs.jced.5b00980)
± gives the expanded uncertainty stated by the source.

Assay: activity coefficient (dimensionless); of the first substance listed, at infinite dilution; xn = mol fraction of the nth substance listed
Conditions: 100 kPa, Liquid, Chromatography, x1 = 0

| SMILES | activity coefficient (328.15 K) | activity coefficient (338.15 K) | activity coefficient (348.15 K) | activity coefficient (358.15 K) | activity coefficient (368.15 K) |
| --- | --- | --- | --- | --- | --- |
| CCCCCCC [heptane] + CCCC[P+](CC)(CCCC)CCCC.CCOP(=O)([O-])OCC | 4.08 ± 0.28 | 3.97 ± 0.27 | 3.87 ± 0.26 | 3.78 ± 0.26 | 3.7 ± 0.25 |
| C1CCCCCC1 [cycloheptane] + CCCC[P+](CC)(CCCC)CCCC.CCOP(=O)([O-])OCC | 2.48 ± 0.17 | 2.42 ± 0.16 | 2.37 ± 0.16 | 2.32 ± 0.16 | 2.27 ± 0.15 |
| CCCC(C)=O [pentan-2-one] + CCCC[P+](CC)(CCCC)CCCC.CCOP(=O)([O-])OCC | 1.03 ± 0.06 | 1.03 ± 0.06 | 1.02 ± 0.06 | 1.02 ± 0.06 | 1.01 ± 0.06 |
| CCO [ethanol] + CCCC[P+](CC)(CCCC)CCCC.CCOP(=O)([O-])OCC | – | 0.035 | 0.038 | 0.042 | 0.045 |
| CCCCCCCCC [nonane] + CCCC[P+](CC)(CCCC)CCCC.CCOP(=O)([O-])OCC | 5.79 ± 0.39 | 5.6 ± 0.38 | 5.43 ± 0.37 | 5.27 ± 0.36 | 5.13 ± 0.35 |
| C=CCCCCC [1-heptene] + CCCC[P+](CC)(CCCC)CCCC.CCOP(=O)([O-])OCC | 3.06 ± 0.21 | 3.01 ± 0.2 | 2.97 ± 0.2 | 2.93 ± 0.2 | 2.89 ± 0.2 |
| C1CCCCCCC1 [cyclooctane] + CCCC[P+](CC)(CCCC)CCCC.CCOP(=O)([O-])OCC | 2.82 ± 0.19 | 2.74 ± 0.19 | 2.69 ± 0.18 | 2.63 ± 0.18 | 2.57 ± 0.17 |
| C1COCCO1 [1,4-dioxane] + CCCC[P+](CC)(CCCC)CCCC.CCOP(=O)([O-])OCC | 1.08 ± 0.07 | 1.06 ± 0.07 | 1.05 ± 0.07 | 1.03 ± 0.06 | 1.02 ± 0.06 |
| COC(C)(C)C [2-methoxy-2-methylpropane] + CCCC[P+](CC)(CCCC)CCCC.CCOP(=O)([O-])OCC | 1.89 ± 0.13 | 1.86 ± 0.13 | 1.84 ± 0.12 | 1.82 ± 0.12 | 1.8 ± 0.12 |
| c1ccncc1 [pyridine] + CCCC[P+](CC)(CCCC)CCCC.CCOP(=O)([O-])OCC | 0.544 ± 0.04 | 0.545 ± 0.04 | 0.548 ± 0.04 | 0.549 ± 0.04 | 0.55 ± 0.04 |
| C=CCCC [1-pentene] + CCCC[P+](CC)(CCCC)CCCC.CCOP(=O)([O-])OCC | 2.18 ± 0.15 | 2.15 ± 0.15 | 2.13 ± 0.14 | 2.11 ± 0.14 | 2.09 ± 0.14 |
| CCCOCCC [dipropyl ether] + CCCC[P+](CC)(CCCC)CCCC.CCOP(=O)([O-])OCC | 2.59 ± 0.18 | 2.55 ± 0.17 | 2.51 ± 0.17 | 2.47 ± 0.17 | 2.43 ± 0.17 |
| CCOC(C)(C)C [2-ethoxy-2-methylpropane] + CCCC[P+](CC)(CCCC)CCCC.CCOP(=O)([O-])OCC | 2.66 ± 0.18 | 2.6 ± 0.18 | 2.56 ± 0.17 | 2.51 ± 0.17 | 2.47 ± 0.17 |
| C#CCCCCC [1-heptyne] + CCCC[P+](CC)(CCCC)CCCC.CCOP(=O)([O-])OCC | 1.01 ± 0.06 | 1.05 ± 0.07 | 1.09 ± 0.07 | 1.13 ± 0.07 | 1.17 ± 0.07 |
| C=Cc1ccccc1 [styrene] + CCCC[P+](CC)(CCCC)CCCC.CCOP(=O)([O-])OCC | 0.971 ± 0.061 | 0.975 ± 0.061 | 0.98 ± 0.061 | 0.983 ± 0.062 | 0.987 ± 0.062 |
| CCC[N+](=O)[O-] [1-nitropropane] + CCCC[P+](CC)(CCCC)CCCC.CCOP(=O)([O-])OCC | 0.499 ± 0.038 | 0.507 ± 0.038 | 0.515 ± 0.038 | 0.523 ± 0.039 | 0.53 ± 0.039 |
| C1CCCC1 [cyclopentane] + CCCC[P+](CC)(CCCC)CCCC.CCOP(=O)([O-])OCC | 1.83 ± 0.12 | 1.8 ± 0.12 | 1.77 ± 0.12 | 1.74 ± 0.12 | 1.71 ± 0.11 |
| CC#N [acetonitrile] + CCCC[P+](CC)(CCCC)CCCC.CCOP(=O)([O-])OCC | 0.464 ± 0.036 | 0.465 ± 0.036 | 0.467 ± 0.036 | 0.468 ± 0.037 | 0.469 ± 0.037 |
| CCCCCCCC [octane] + CCCC[P+](CC)(CCCC)CCCC.CCOP(=O)([O-])OCC | 4.87 ± 0.33 | 4.74 ± 0.32 | 4.6 ± 0.31 | 4.47 ± 0.3 | 4.37 ± 0.3 |
| CCC(=O)CC [pentan-3-one] + CCCC[P+](CC)(CCCC)CCCC.CCOP(=O)([O-])OCC | 1.02 ± 0.06 | 1.02 ± 0.06 | 1.02 ± 0.06 | 1.02 ± 0.06 | 1.02 ± 0.06 |

| SMILES | activity coefficient (328.15 K) | activity coefficient (338.15 K) | activity coefficient (348.15 K) | activity coefficient (358.15 K) | activity coefficient (368.15 K) |
| --- | --- | --- | --- | --- | --- |
| CC(C)OC(C)C [diisopropyl ether] + CCCC[P+](CC)(CCCC)CCCC.CCOP(=O)([O-])OCC | 2.82 ± 0.19 | 2.75 ± 0.19 | 2.69 ± 0.18 | 2.65 ± 0.18 | 2.59 ± 0.18 |
| CCCCC(C)=O [2-hexanone] + CCCC[P+](CC)(CCCC)CCCC.CCOP(=O)([O-])OCC | 1.15 ± 0.07 | 1.15 ± 0.07 | 1.15 ± 0.07 | 1.15 ± 0.07 | 1.14 ± 0.07 |
| CCC(C)(C)C [2,2-dimethylbutane] + CCCC[P+](CC)(CCCC)CCCC.CCOP(=O)([O-])OCC | 3.34 ± 0.23 | 3.27 ± 0.22 | 3.2 ± 0.22 | 3.14 ± 0.21 | 3.08 ± 0.21 |
| C1=CCCCC1 [cyclohexene] + CCCC[P+](CC)(CCCC)CCCC.CCOP(=O)([O-])OCC | 1.72 ± 0.12 | 1.69 ± 0.11 | 1.67 ± 0.11 | 1.65 ± 0.11 | 1.63 ± 0.11 |
| CC(C)CC(C)(C)C [2,2,4-trimethylpentane] + CCCC[P+](CC)(CCCC)CCCC.CCOP(=O)([O-])OCC | 4.38 ± 0.3 | 4.25 ± 0.29 | 4.15 ± 0.28 | 4.05 ± 0.28 | 3.97 ± 0.27 |
| CC1CCCCC1 [methylcyclohexane] + CCCC[P+](CC)(CCCC)CCCC.CCOP(=O)([O-])OCC | 2.62 ± 0.18 | 2.57 ± 0.17 | 2.52 ± 0.17 | 2.48 ± 0.17 | 2.44 ± 0.17 |
| CCCC(=O)CC [3-hexanone] + CCCC[P+](CC)(CCCC)CCCC.CCOP(=O)([O-])OCC | 1.23 ± 0.08 | 1.21 ± 0.08 | 1.21 ± 0.08 | 1.2 ± 0.08 | 1.2 ± 0.08 |
| CCC(C)CC [3-methylpentane] + CCCC[P+](CC)(CCCC)CCCC.CCOP(=O)([O-])OCC | 3.17 ± 0.22 | 3.12 ± 0.21 | 3.07 ± 0.21 | 3.02 ± 0.21 | 2.98 ± 0.2 |
| c1ccccc1 [benzene] + CCCC[P+](CC)(CCCC)CCCC.CCOP(=O)([O-])OCC | 0.871 ± 0.056 | 0.863 ± 0.055 | 0.855 ± 0.055 | 0.847 ± 0.054 | 0.84 ± 0.054 |
| CCC(C)(C)OC [2-methoxy-2-methylbutane] + CCCC[P+](CC)(CCCC)CCCC.CCOP(=O)([O-])OCC | 2.09 ± 0.14 | 2.07 ± 0.14 | 2.05 ± 0.14 | 2.02 ± 0.14 | 2.01 ± 0.14 |
| O [water] + CCCC[P+](CC)(CCCC)CCCC.CCOP(=O)([O-])OCC | 0.101 ± 0.03 | 0.105 ± 0.03 | 0.109 ± 0.03 | 0.112 ± 0.03 | 0.116 ± 0.03 |
| Cc1ccccc1 [toluene] + CCCC[P+](CC)(CCCC)CCCC.CCOP(=O)([O-])OCC | 1.2 ± 0.08 | 1.19 ± 0.08 | 1.18 ± 0.08 | 1.16 ± 0.07 | 1.15 ± 0.07 |
| Cc1ccc(C)cc1 [1,4-dimethylbenzene] + CCCC[P+](CC)(CCCC)CCCC.CCOP(=O)([O-])OCC | 1.64 ± 0.11 | 1.61 ± 0.11 | 1.59 ± 0.11 | 1.57 ± 0.1 | 1.55 ± 0.1 |
| C#CCCCCCC [1-octyne] + CCCC[P+](CC)(CCCC)CCCC.CCOP(=O)([O-])OCC | 1.17 ± 0.07 | 1.22 ± 0.08 | 1.28 ± 0.08 | 1.33 ± 0.09 | 1.38 ± 0.09 |
| CCCCCC [hexane] + CCCC[P+](CC)(CCCC)CCCC.CCOP(=O)([O-])OCC | 3.4 ± 0.23 | 3.33 ± 0.23 | 3.26 ± 0.22 | 3.21 ± 0.22 | 3.15 ± 0.21 |
| C=CCCCCCCCC [1-decene] + CCCC[P+](CC)(CCCC)CCCC.CCOP(=O)([O-])OCC | 5.2 ± 0.35 | 5.06 ± 0.34 | 4.93 ± 0.34 | 4.81 ± 0.33 | 4.69 ± 0.32 |
| C1CCOC1 [tetrahydrofuran] + CCCC[P+](CC)(CCCC)CCCC.CCOP(=O)([O-])OCC | 0.938 ± 0.059 | 0.926 ± 0.059 | 0.919 ± 0.058 | 0.907 ± 0.058 | 0.899 ± 0.057 |
| CCCCCCCCCC [decane] + CCCC[P+](CC)(CCCC)CCCC.CCOP(=O)([O-])OCC | 7.01 ± 0.48 | 6.74 ± 0.46 | 6.49 ± 0.44 | 6.26 ± 0.43 | 6.05 ± 0.41 |
| C=CCCCCCC [oct-1-ene] + CCCC[P+](CC)(CCCC)CCCC.CCOP(=O)([O-])OCC | 3.68 ± 0.25 | 3.6 ± 0.25 | 3.52 ± 0.24 | 3.45 ± 0.23 | 3.39 ± 0.23 |
